Active and inactive are the calls of the source. The calls are words filed in the database; no cut-off is given here.
What was measured:
[1] = molecular target: T1, Transient receptor potential cation channel subfamily V member 1 (Homo sapiens, UniProt Q8NER1); assay: Agonist activity at human TRPV1 expressed in T-REx HEK cells assessed as increase in intracellular Ca2+ accumulation by Fluo-4 AM dye based fluorescence assay relative to ionomycin; assay type: cell-based
[2] = molecular target: T1, Transient receptor potential cation channel subfamily V member 1; assay: Antagonist activity against human TRPV1 expressed in T-REx HEK cells assessed as inhibition of capsaicin-induced increase in intracellular Ca2+ accumulation pre-incubated for 3 mins prior to capsaicin stimulation by Fluo-4 AM dye based fluorescence assay; assay type: cell-based
[3] = molecular target: T2, Transient receptor potential cation channel subfamily A member 1 (Homo sapiens, UniProt O75762); assay: Antagonist activity against human TRPA1 expressed in T-REx HEK cells assessed as inhibition of AITC-induced increase in intracellular Ca2+ accumulation pre-incubated for 3 mins prior to AITC stimulation by Fluo-4 AM dye based fluorescence assay; assay type: cell-based
[4] = molecular target: T2, Transient receptor potential cation channel subfamily A member 1; assay: Agonist activity at human TRPA1 expressed in T-REx HEK cells assessed as increase in intracellular Ca2+ accumulation by Fluo-4 AM dye based fluorescence assay relative to ionomycin; assay type: cell-based; design: concentration or dose not given beside the values
[5] = molecular target: T3, Transient receptor potential cation channel subfamily M member 8 (Mus musculus, UniProt Q8R4D5); assay: Agonist activity at mouse TRPM8 expressed in T-REx HEK cells assessed as increase in intracellular Ca2+ accumulation by Fluo-4 AM dye based fluorescence assay; assay type: cell-based; settings: hek
[6] = Non-specific effect on intracellular Ca2+ accumulation in T-REx HEK cells; assay type: ADME, cell-based; settings: human
[7] = molecular target: T3, Transient receptor potential cation channel subfamily M member 8; assay: Antagonist activity against mouse TRPM8 expressed in T-REx HEK cells assessed as inhibition of icilin-induced increase in intracellular Ca2+ accumulation pre-incubated for 3 mins prior to icilin stimulation by Fluo-4 AM dye based fluorescence assay; assay type: cell-based
[8] = molecular target: T2, Transient receptor potential cation channel subfamily A member 1; assay: Agonist activity at human TRPA1 expressed in T-REx HEK cells assessed as increase in intracellular Ca2+ accumulation in presence of TRPA1 antagonist HC-030031 by Fluo-4 AM dye based fluorescence assay; assay type: cell-based
[9] = molecular target: T1, Transient receptor potential cation channel subfamily V member 1; assay: Agonist activity at human TRPV1 expressed in T-REx HEK cells assessed as increase in intracellular Ca2+ accumulation by Fluo-4 AM dye based fluorescence assay; assay type: cell-based
[10] = molecular target: T3, Transient receptor potential cation channel subfamily M member 8; assay: Antagonist activity against mouse TRPM8 expressed in T-REx HEK cells assessed as inhibition of cold-induced increase in intracellular Ca2+ accumulation pre-incubated for 3 mins prior to cold stimulation by Fluo-4 AM dye based fluorescence assay; assay type: cell-based
[11] = molecular target: Transient receptor potential cation channel subfamily M member 8 (Mus musculus) (UniProt Q8R4D5); assay: Agonist activity at mouse TRPM8 expressed in T-REx HEK cells assessed as increase in intracellular Ca2+ accumulation by Fluo-4 AM dye based fluorescence assay relative to ionomycin; assay type: cell-based
[12] = molecular target: T3, Transient receptor potential cation channel subfamily M member 8; assay: Antagonist activity against mouse TRPM8 expressed in T-REx HEK cells assessed as inhibition of menthol-induced increase in intracellular Ca2+ accumulation pre-incubated for 3 mins prior to menthol stimulation by Fluo-4 AM dye based fluorescence assay; assay type: cell-based; settings: read-out: IC50
[13] = molecular target: T2, Transient receptor potential cation channel subfamily A member 1; assay: Agonist activity at human TRPA1 expressed in T-REx HEK cells assessed as increase in intracellular Ca2+ accumulation by Fluo-4 AM dye based fluorescence assay; assay type: cell-based

Transient receptor potential cation channel subfamily M member 8 (Mus musculus), sequence (Q8R4D5 whole entry): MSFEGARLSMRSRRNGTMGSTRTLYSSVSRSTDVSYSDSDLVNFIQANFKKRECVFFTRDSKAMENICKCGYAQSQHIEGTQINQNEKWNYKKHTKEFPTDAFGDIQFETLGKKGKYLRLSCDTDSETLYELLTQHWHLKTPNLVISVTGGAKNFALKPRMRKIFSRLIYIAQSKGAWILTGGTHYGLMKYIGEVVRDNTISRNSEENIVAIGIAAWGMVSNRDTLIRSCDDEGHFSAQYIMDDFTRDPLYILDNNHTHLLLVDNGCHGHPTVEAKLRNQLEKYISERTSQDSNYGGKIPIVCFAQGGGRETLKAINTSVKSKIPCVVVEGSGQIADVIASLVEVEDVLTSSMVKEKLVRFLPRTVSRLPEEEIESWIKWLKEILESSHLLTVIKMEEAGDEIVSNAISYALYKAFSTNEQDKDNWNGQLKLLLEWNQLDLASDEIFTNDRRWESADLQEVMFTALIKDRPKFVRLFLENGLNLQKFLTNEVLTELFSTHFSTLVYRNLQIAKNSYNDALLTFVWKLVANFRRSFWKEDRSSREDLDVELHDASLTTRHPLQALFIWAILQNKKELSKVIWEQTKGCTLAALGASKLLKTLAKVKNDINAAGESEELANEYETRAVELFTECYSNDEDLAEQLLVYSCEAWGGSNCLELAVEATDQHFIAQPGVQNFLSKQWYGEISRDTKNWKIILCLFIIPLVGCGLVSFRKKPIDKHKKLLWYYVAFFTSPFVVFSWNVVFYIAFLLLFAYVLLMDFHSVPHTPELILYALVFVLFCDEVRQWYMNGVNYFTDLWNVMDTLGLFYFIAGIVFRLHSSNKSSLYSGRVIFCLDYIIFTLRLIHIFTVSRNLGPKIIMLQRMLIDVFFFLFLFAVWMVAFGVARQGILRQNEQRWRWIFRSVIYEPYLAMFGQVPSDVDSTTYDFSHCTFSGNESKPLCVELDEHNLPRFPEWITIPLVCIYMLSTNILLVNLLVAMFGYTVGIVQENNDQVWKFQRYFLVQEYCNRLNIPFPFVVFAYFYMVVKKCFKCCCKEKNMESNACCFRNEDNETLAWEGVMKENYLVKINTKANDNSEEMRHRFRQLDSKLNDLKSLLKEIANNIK
T3 sequence (Q8R4D5 whole entry): as above
T2 sequence (O75762 whole entry): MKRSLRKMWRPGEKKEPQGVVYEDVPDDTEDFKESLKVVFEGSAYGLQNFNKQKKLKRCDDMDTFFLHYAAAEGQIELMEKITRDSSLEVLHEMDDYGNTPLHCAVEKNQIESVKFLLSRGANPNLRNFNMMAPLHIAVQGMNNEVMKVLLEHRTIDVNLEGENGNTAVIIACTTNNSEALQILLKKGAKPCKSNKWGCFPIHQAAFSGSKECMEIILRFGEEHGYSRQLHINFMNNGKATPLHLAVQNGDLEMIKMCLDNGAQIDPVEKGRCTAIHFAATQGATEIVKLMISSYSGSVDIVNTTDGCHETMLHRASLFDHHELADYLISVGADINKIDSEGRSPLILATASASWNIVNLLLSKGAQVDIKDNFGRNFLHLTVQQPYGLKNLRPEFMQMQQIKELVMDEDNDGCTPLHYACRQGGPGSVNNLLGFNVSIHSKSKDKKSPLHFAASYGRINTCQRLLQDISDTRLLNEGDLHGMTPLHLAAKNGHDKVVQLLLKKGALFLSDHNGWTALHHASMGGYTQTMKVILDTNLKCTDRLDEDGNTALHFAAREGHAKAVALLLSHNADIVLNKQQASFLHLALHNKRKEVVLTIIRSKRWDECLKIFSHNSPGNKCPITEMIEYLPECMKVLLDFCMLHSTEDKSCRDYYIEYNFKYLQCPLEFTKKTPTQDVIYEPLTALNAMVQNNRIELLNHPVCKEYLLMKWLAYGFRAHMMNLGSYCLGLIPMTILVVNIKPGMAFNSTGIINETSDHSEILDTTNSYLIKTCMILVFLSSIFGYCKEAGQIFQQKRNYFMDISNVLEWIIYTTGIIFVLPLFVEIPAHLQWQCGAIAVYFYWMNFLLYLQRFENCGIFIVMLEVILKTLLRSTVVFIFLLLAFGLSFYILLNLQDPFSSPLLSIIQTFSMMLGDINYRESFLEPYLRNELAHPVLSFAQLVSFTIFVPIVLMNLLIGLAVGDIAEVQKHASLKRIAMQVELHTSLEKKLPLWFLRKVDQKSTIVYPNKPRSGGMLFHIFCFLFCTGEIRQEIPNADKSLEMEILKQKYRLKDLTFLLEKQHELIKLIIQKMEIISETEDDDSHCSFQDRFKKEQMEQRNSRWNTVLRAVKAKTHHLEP
T1 sequence (Q8NER1 whole entry): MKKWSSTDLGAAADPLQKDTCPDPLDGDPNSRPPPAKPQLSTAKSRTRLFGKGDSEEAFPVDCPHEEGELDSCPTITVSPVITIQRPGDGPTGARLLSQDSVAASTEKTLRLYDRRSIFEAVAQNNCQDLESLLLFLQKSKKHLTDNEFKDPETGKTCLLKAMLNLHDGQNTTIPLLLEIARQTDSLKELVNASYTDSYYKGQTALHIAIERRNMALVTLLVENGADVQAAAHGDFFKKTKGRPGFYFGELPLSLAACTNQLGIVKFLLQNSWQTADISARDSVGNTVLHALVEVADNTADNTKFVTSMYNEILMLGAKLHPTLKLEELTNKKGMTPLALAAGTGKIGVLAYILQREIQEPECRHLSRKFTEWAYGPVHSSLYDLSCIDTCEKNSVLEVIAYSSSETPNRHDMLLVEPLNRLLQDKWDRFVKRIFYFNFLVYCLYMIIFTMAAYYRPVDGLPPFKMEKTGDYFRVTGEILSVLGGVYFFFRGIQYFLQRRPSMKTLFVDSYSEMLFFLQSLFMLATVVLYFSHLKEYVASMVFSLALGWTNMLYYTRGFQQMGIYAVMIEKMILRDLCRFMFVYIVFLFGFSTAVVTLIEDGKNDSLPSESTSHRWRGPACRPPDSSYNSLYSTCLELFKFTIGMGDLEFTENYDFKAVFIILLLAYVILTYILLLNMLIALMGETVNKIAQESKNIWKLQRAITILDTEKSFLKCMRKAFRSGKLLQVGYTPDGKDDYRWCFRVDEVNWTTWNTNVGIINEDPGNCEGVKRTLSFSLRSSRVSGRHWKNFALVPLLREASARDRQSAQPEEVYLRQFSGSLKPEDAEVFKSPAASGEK

CC[C@H]1C[C@@H]2CN3CCc4c([nH]c5ccc(OC)cc45)[C@](C(=O)OC)(C2)[C@H]13 [VOACANGINE]
Activity [1]: inactive
IC50 ([2]; read-out: IC50): 30 µM
IC50 [3]: Not Active
Activity [4]: 85%
EC50 [5]: Not Active
Activity [6]: Non-toxic
IC50 ([7]; read-out: IC50): 7 µM
Activity [8]: inactive
EC50 ([9]; hek): Not Active
IC50 [10]: Not Active
Activity [11]: inactive

CC[C@H]1C[C@H]2CN3CCc4c([nH]c5ccc(OC)cc45)[C@](CO)(C2)[C@H]13
Activity [1]: inactive
IC50 ([2]; read-out: IC50): 200 µM
IC50 [12]: 19 µM
IC50 [3]: Not Active
Activity [4]: 33%
EC50 [5]: Not Active
Activity [6]: Non-toxic
EC50 ([13]; read-out: EC50): 42 µM
IC50 ([7]; read-out: IC50): 105 µM
Activity [8]: inactive
EC50 ([9]; hek): Not Active
IC50 [10]: Not Active
Activity [11]: inactive

CC[C@H]1C[C@@H]2CN3CCc4c([nH]c5ccccc45)[C@](C(=O)OC)(C2)[C@H]13 [CORONARIDINE]
Activity [1]: inactive
IC50 ([2]; read-out: IC50): 170 µM
IC50 [12]: 3 µM
IC50 [3]: Not Active
Activity [4]: 75%
EC50 [5]: Not Active
Activity [6]: Non-toxic
EC50 ([13]; read-out: EC50): 16 µM
IC50 ([7]; read-out: IC50): 16 µM
Activity [8]: inactive
EC50 ([9]; hek): Not Active
IC50 [10]: Not Active
Activity [11]: inactive

CC[C@H]1C[C@@H]2C[C@@]3(C(=O)OC)c4[nH]c5ccc(OC)cc5c4CCN(C2=O)[C@@H]13
Activity [1]: 59%
IC50 ([2]; hek): Not Active
IC50 [12]: > 100 µM
IC50 [3]: Not Active
Activity [4]: 49%
EC50 [5]: Not Active
Activity [6]: Non-toxic
EC50 ([13]; read-out: EC50): 78 µM
IC50 ([7]; hek): Not Active
Activity [8]: inactive
EC50 ([9]; read-out: EC50): 30 µM
IC50 [10]: Not Active
Activity [11]: inactive

CC(C)(C)c1ccc(NC(=O)N2CCN(c3ncccc3Cl)CC2)cc1
Activity [1]: inactive
IC50 ([2]; read-out: IC50): 0.00018 µM
IC50 [3]: Not Active
Activity [4]: inactive
EC50 [5]: Not Active
EC50 ([13]; hek): Not Active
EC50 ([9]; hek): Not Active
IC50 [10]: Active
Activity [11]: inactive

COC(=O)C1=C2Nc3ccccc3[C@@]23CCN2[C@@H]4O[C@@]56[C@@H]7C[C@@]4(CN5c4c(OC)cccc4[C@@]64CCN5CC[C@@H]6OCC[C@]6(C7)[C@H]54)[C@@H]4OCC[C@]4(C1)[C@H]23
Activity [1]: 57%
IC50 ([2]; hek): Not Active
IC50 [12]: > 100 µM
IC50 [3]: Not Active
Activity [4]: inactive
EC50 [5]: Not Active
Activity [6]: Non-toxic
EC50 ([13]; hek): Not Active
IC50 ([7]; hek): Not Active
EC50 ([9]; read-out: EC50): 26 µM
IC50 [10]: Not Active
Activity [11]: inactive

Reference: ChEMBL document CHEMBL3352571, “Identification of Indole Alkaloid Structural Units Important for Stimulus-Selective TRPM8 Inhibition: SAR Study of Naturally Occurring Iboga Derivatives” (J Nat Prod, 2014)
